Measured values: patent publication US20060276394A1, “METHODS AND COMPOSITIONS FOR TREATING NEUROLOGICAL DISORDERS” (WYETH, priority 2002, published 2006)
Entries after “also recorded” stand apart in the source; their conditions may differ.

Columns and labels:
IGFBP-2 mRNA = experiment: transcriptional profiling of amygdala of drug-treated rats; assay type: in vivo; conditions: rat amygdala
Excerpt: In the short-term 3 day treatment, it is possible that the drugs might exert their antidepressant effects through decreasing IGFBP-2 expression, which would increase bioavailability of IGF-I. The long-term treatment is of equivalent magnitude but in the opposite direction. This may represent a compensatory mechanism in response to the short-term drug effects.

Balb/C mice = experiment: mouse elevated zero maze (EZM); assay type: in vivo
Description: (§1) To assess the anxiolytic activity of NBI-31772, mice receiving intraventricular administration of NBI-31772 were tested in an elevated zero maze (EZM) or in a four-plate appratus (FPT). NBI-31722 (availabe from Calbiochem/EMD Biosciences, Inc. of San Diego, Calif.) was administered in a volume of 2 μl. Balb/C mice were used for the elevated zero maze and Swiss-Webster mice were used for the four-plate test. One-way analysis of variance (ANOVA) was performed on behavioral data to determine effects of test compound treatments, followed by Least Significant Difference Tests for a post hoc analysis. Data is presented as the mean±SEM.
These effects are similar to those seen with reference anxiolytic compounds chlordiazepoxide and diazepam (Ring et al., Psychopharmacology (Berl.), 2006, 185(2):218-225) and are indicative of anxiolytic-like activity of NBI-31772 in the EZM.

Swiss-Webster mice [1] = experiment: mouse four-plate test (FPT), punished crossings; assay type: in vivo
Description: as §1
The four-plate apparatus consists of a Plexiglas chamber (18×25×16 cm) with a floor consisting of four rectangular metal plates (8×11 cm), which are separated from one another by a 4 mm gap. All four plates are wired to a shock generator (0.8 mA, 0.5 second; Med Associates Inc. of St. Albans, Vt.). In each experiment, mice are placed into the chamber and given an 18-second habituation period followed by a 1-minute test. During the test, the animal's innate motivation to explore the novel environment is suppressed by the delivery of a mild foot shock every time the animal moves from one plate to another (referred to as a ‘punished crossing’). Following each punished crossing, there is a 3-second time out where the mouse may cross the plates without receiving another shock. An experimenter blind to the dosing conditions administers shocks, and a computer records the total number of punished crossings an animal makes during the testing period. Clinically effective classes of anxiolytic compounds such as benzodiazepines, selective serotonin reuptake inhibitors, or 5-HT1A […] produce increases in punished crossings, which is indicative of anxiolytic-like activity.
In each study, mice were given a single icv injection or two icv injections of test compounds or vehicle 20 minutes prior to the test session, and the number of punished crosses during the 1-minute test was recorded. For experiments where 2 icv injections were given, an animal received an injection in both the left and right ventricles, with the second injection given immediately after the first injection. A 26-gauge Hamilton syringe with 3-mm needle was used for injections and the injection site was visualized by locating the middle of the invisible line that runs diagonally from the left eye to the right ear. Mice were housed individually during the interval between injections and behavioral testing.
The mouse four-plate test was performed and statistical analyses conducted as described in Example 9.
In these studies, NBI-31772 and JB1, an IGF-1R antagonist, were administered centrally (icv) with the two injections occurring sequentially. Compounds were administered 20 minutes prior to testing and the number of punished crosses during the 1-minute test was recorded.

Swiss-Webster mice [2] = experiment: mouse tail suspension test (TST); assay type: in vivo; conditions: for immobility: 20 minutes prior to testing
Description: To assess the on potential antidepressant effects of NBI-31772, Swiss-Webster mice were analyzed using the Tail Suspension Test (TST). In this test, mice were suspended upside down by taping their tails with adhesive laboratory tape (VWR International of West Chester, Pa.) to a flat metal bar connected to a strain gauge within a sound-attenuating chamber (Med Associates Inc. of St. Albans, Vt.). The bar is positioned such that a mouse is not able to grasp the top or the sides of the chamber. The total time spent immobile during a 6-minute test session is automatically recorded. Compounds that decrease the total immobility time compared to control animals are predicted to have antidepressant-like effects. In each study, mice were given a single icv injection of test compound or vehicle 20 minute prior to the test session. Mice were housed individually during the interval between injection and behavioral testing.
One-way analysis of variance (ANOVA) was performed on behavioral data to determine effects of NBI-31772 treatment, followed by Least Significant Difference Tests for a post hoc analysis. The data is presented as the mean±SEM. […] This decrease in immobility indicates antidepressant-like effects similar to that seen with IGF-1.
The mouse tail suspension test was performed and statistical analyses conducted as described in Example 11.

IGFBP-1 to IGFBP-6 = conditions: cited from earlier work
IGFBP-2 = target: T1, IGFBP-2 (Homo sapiens, UniProt P18065); conditions: cited from earlier work
T1 sequence (P18065 with tags, fused parts or gaps DUP19-21/R317C): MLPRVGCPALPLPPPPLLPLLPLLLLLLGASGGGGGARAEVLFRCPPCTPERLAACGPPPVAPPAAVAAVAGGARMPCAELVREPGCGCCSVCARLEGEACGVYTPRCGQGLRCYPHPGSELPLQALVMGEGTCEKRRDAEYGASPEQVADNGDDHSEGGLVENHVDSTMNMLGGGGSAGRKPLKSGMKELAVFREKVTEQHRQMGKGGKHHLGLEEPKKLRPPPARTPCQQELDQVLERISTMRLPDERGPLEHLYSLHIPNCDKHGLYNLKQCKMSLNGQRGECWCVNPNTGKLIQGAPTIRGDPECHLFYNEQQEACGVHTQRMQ

fibroblast = conditions: IGF-I released from binding protein complex; cited from earlier work
IGF-I mRNA = experiment: microarray profiling of antidepressant-treated C6 glioma cell lines; assay type: cell-based; conditions: quiescent C6 glioma cell lines, 24 hours
Excerpt: Glial cell cultures were used because they lack endogenous serotonin and norepinephrine transporter mechanisms. Thus, any transcriptional effects caused by the antidepressant drugs are due to actions beyond the level of the serotonin and norepinephrine receptors and respective transporters. […] Antidepressant drugs may therefore be acting on the glia, which produces the neurotrophic factor IGF-I, which acts in a juxtacrine manner to stimulate neurogenesis.

adult rat dentate gyrus = experiment: BrdU-positive cell proliferation in adult rat dentate gyrus after chronic icv infusion; assay type: in vivo; conditions: 10 days icv via minipump, sacrifice Day 11
Description: Previous investigators have shown that IGF-1 administered either intracerebroventricular (icv) or systemically increases proliferation and survival, and (Aberg, et al, 2000; Lichtenwalner et al, 2000). Furthermore, systemic IGF promotes neuronal differentiation. The present study confirms and extends these previous findings. Rats were given IGF-1 for 10 days via a cannula attached to a semiosmotic minipump. On Day 11, animals were sacrificed and quantitative analysis was performed to determine the number of BrdU-positive cells as a measure of cell proliferation. A 66% increase in BrdU-positive cells per hippocampus compared to saline-infused animals was observed (FIG. 10).

[3] = cited from earlier work
[4] = rats, subcutaneous deposition; cited from earlier work

O=C1CC2(CCCC2)CC(=O)N1CCCCN1CCN(c2ncccn2)CC1 [Buspirone]
expression of IGFBP-2 mRNA compared to vehicle alone (IGFBP-2 mRNA; 3 day treatment): decreased expression | expression of IGFBP-2 mRNA compared to vehicle alone (IGFBP-2 mRNA; 14 day treatment): increased expression

C[C@]12CC[C@H]3[C@@H](CC[C@@H]4C[C@@](O)(C(F)(F)F)CC[C@@H]43)[C@@H]1CC[C@@H]2C(=O)CO [GMA-839]
expression of IGFBP-2 mRNA compared to vehicle alone (IGFBP-2 mRNA; 3 day treatment): decreased expression | expression of IGFBP-2 mRNA compared to vehicle alone (IGFBP-2 mRNA; 14 day treatment): increased expression

O=C(O)c1cc2cc(O)c(O)cc2c(C(=O)c2ccc(O)c(O)c2)n1 [NBI-31772]
increase in % time in the open arms compared to the vehicle group (Balb/C mice; 0.3 μg icv): 100% | increase in % time in the open arms compared to the vehicle group (Balb/C mice; 1 μg icv): 100% | increase in % time in the open arms compared to the vehicle group (Balb/C mice; 3 μg icv): 81% | increase in % time in the open arms compared to the vehicle group (Balb/C mice; 10 μg icv): 119% | % time spent in the open arms of the maze (Balb/C mice; 0.1-10 μg, icv, 20 minutes prior to testing): dose-dependent increase | increase in punished crossings (Swiss-Webster mice [1]; 10 μg icv): 22% | increase in punished crossings (Swiss-Webster mice [1]; 30 μg icv): 32% | increase in punished crossings compared to vehicle group (Swiss-Webster mice [1]; 30 μg icv, two sequential icv injections study): 24% | seizures, percentage of animals (Swiss-Webster mice [1]; 56 μg icv): 20% | seizures, percentage of animals (Swiss-Webster mice [1]; 100 μg icv): 40% | punished crossings (Swiss-Webster mice [1]; 3.0-30 μg, icv): dose-dependent increase | punished crossings (Swiss-Webster mice [1]; higher doses 56 and 100 μg icv, not used for analysis): an increase in punished crossings was seen | decrease in immobility (Swiss-Webster mice [2]; 3 μg icv): 32% | decrease in immobility (Swiss-Webster mice [2]; 10 μg icv): 35% | decrease in immobility (Swiss-Webster mice [2]; 30 μg icv): 38% | immobility (Swiss-Webster mice [2]; 0.3-30 μg icv): dose-dependent decrease | dissociation of IGF-I from its binding protein complex (IGFBP-1 to IGFBP-6): dissociates | inhibition of 125I IGF-I binding / interaction of IGF-I with IGFBP-1 to 6 (IGFBP-1 to IGFBP-6): inhibits; also recorded: dose-dependent inhibition | activity toward IGFBP-2 compared to the other five IGFBPs (IGFBP-2): highest activity | biological activity of the released IGF-I (fibroblast): biologically active

Fc1ccc([C@@H]2CCNC[C@H]2COc2ccc3c(c2)OCO3)cc1 [Paroxetine]
expression of IGFBP-2 mRNA compared to vehicle alone (IGFBP-2 mRNA; 3 day treatment): decreased expression | expression of IGFBP-2 mRNA compared to vehicle alone (IGFBP-2 mRNA; 14 day treatment): increased expression

CNCCCN1c2ccccc2CCc2ccccc21 [desipramine]
expression of IGF-I mRNA (IGF-I mRNA): increased expression

CNCCC(Oc1ccc(C(F)(F)F)cc1)c1ccccc1 (stereo not shown) [fluoxetine]
expression of IGF-I mRNA (IGF-I mRNA): increased expression

COc1ccc(C(CN(C)C)C2(O)CCCCC2)cc1 (stereo not shown) [venlafaxine]
expression of IGF-I mRNA (IGF-I mRNA): increased expression

IGF-1: recombinant human IGF-1, insulin-like growth factor, available from Bachem Biosciences
increase in punished crossings from vehicle (Swiss-Webster mice [1]; 0.01 μg dose, central administration): 32% | effects in the four-plate test (FIG. 13) (Swiss-Webster mice [1]; 0.1 μg): anxiolytic-like effects | punished crossings (Swiss-Webster mice [1]; 0.03-1.0 μg, central administration 20 minutes prior to testing): significant overall effect | decrease in immobility from vehicle (Swiss-Webster mice [2]; 10 μg dose): 33% | immobility (Swiss-Webster mice [2]; 1-10 μg): dose-dependent decrease | increase in BrdU-positive cells per hippocampus compared to saline-infused animals (adult rat dentate gyrus): 66% | inhibition of 125I IGF-I binding / interaction of IGF-I with IGFBP-1 to 6 (IGFBP-1 to IGFBP-6): dose-dependent inhibition | serum half-life [3]: 10 min | concentrations in the CNS relative to those in the serum [4]: about 0.5% | plasma concentrations at which uptake into CSF reached a plateau [4]: above 150 ng/ml

complex of IGF-I and IGFBP-3: dimeric complex of IGF-I and IGFBP-3 in serum
serum half-life [3]: 30 min
